“Also recorded” adds a separate entry of the source. Where two headings read alike, the source gives them in different places. One block for each compound: values may come before it.
How the values were obtained:
[1] = system: Bcl-2 low and high expressing Jurkat lymphoma cells (Jurkat/Vector, Jurkat/Bcl-2); assay: Cell viability in Bcl-2 low and high expressing Jurkat cells; type: cell-based, human
Bcl-2 loop domain = Bcl-2 loop domain (Homo sapiens, UniProt P10415); assay: Limited proteolysis of GST tagged Bcl-2 loop domain with trypsin; type: biochemical; details: for Proteolysis of Bcl-2 loop domain: 50 μM, trypsin 1, 2, 4 and 8 min
Description: FIG. 11B depicts proteolysis of Bcl-2 loop domain in the presence of methotrexate. GST tagged BCl-2 loop domain was incubated with 1 μM methotrexate at the indicated times to determine if methotrexate interaction with loop domain has an effect on the proteolysis pattern upon co incubation with trypsin.
Purified GST tagged Bcl-2 loop domain was incubated with 50 μM BFC1108 at the indicated times to determine if BFC1108 interaction with loop domain has an effect on the proteolysis pattern upon co-incubation with trypsin.
FIG. 22B depicts limited proteolysis of Bcl-2 loop domain in the presence of BFC1103.
(§1) GST-Bcl-2 and GST only fragments (60 μg) were incubated with 0.1% DMSO or BFC1103 (50 μM) for 1 h and proteolyzed by 3 μg/ml of trypsin for 1, 2, 4 and 8 min. Reactions were quenched by the addition of laemmli buffer. The resulting protease cleavage fragments were resolved on a 12% SDS-PAGE gel and visualized by coomassie blue staining.
as §1, with “GST-Bcl-2 loop71” for “GST-Bcl-2”, “Laemmli” for “laemmli”, “Coomassie” for “coomassie”

[2] = system: MDA-MB-231/Vector and MDA-MB-231/Bcl-2 cells; assay: Clonogenic survival of MDA-MB-231 cells; type: cell-based, human
H460 cells = assay: JC-1 staining of mitochondrial membrane potential; type: cell-based, human; details: 16 h, 10% FBS, 10 μM for MTX and BFC1103
Description: JC-1 was used to stain live cells undergoing treatment with MTX at 10 μM for 16 h and images taken with FITC and Rhodamine filters were overlayed. Cells stained orange have intact mitochondrial outer membrane and the ones turning green have compromised outer membrane indicating loss of membrane potential.
(§2) FIG. 17D JC-1 stain was used to stain live H460 cells that were treated with M BFC1108 for 16 h in 10% FBS containing medium and images taken with FITC and rhodamine filters were overlaid. Cells stained orange have intact mitochondrial outer membrane and the ones turning green have compromised outer membrane indicating loss of membrane potential.
as §2, with “JC-1” for “FIG. 17D JC-1”, “cells” for “cells that were”, “10 μM BFC1103” for “M BFC1108”

[3] = system: MDA-MB-231/Vector and MDA-MB-231/Bcl-2 cells; assay: Viability screening assay in MDA-MB-231 cells with high and low Bcl-2 (CellTiter Glo); type: cell-based, human; details: for Bcl-2 selective reduction in viability, MDA-MB-231/Bcl-2 vs MDA-MB-231/Vector: 10 μM, 10% serum; for Bcl-2 dependent reduction in viability, MDA-MB-231/Bcl-2 vs Vector: 10% FBS
Description: In one example, a triple negative breast cancer cell line, MDA-MB-231, was used for screening these libraries. […] At the end of the assay, cell viability was determined using the cell titer Glo assay. […] A hit was defined as a compound inducing more than 20% reduction in viability of MDA-MB-231/Bcl-2 cells, compared to vector controls (MDA-MB-231/Vector). In the next step these shortlisted small molecules were tested for their ability to convert the conformation of Bcl-2 into a pro-apoptotic one.
To screen for Bcl-2 selective compounds, MDA-MB-231 cells (MDA-MB-231/Vector and MDA-MB-231/Bcl-2) were plated at 4000 cells per well in a 96 well black opaque plate. The day after plating the cells, treatment from the library plates was done so as to add 1 μL of the compound into the cells, resulting in 10 μM concentration. For non-specific […], 25 nM of staurosporin was used. […] Post treatment viability was assessed by CellTiter Glo Cell Viability assay (Promega Inc., Madison, Wis.) as per manufacturer instructions.
Viability for test compounds in each cell line (MDA-MB-231/Vector and MDA-MB-231/Bcl-2) was normalized to their respective vehicle treatments. Compounds that had at least 20% less viability in the MDA-MB-231/Bcl-2 cell line than the MDA-MB-231/Vector cell line were selected as initial hits and shortlisted for revalidation. Revalidated compounds were reordered for further testing and characterization. All data analyses were performed using Microsoft Excel.

[4] = system: MCF-7/Vector and MCF-7/Bcl-2 cells; assay: Viability of MCF-7 cells with high and low Bcl-2; type: cell-based, human; details: 10% FBS
Description: MDA-MB-231 and MCF-7 breast cancer cell lines stably overexpressing Bcl-2 were generated via electroporation and subsequent clonal expansion in G418-containing media. MDA-MB-231 cell clones with sufficiently high expression of Bcl-2 (MDA-MB-231/Bcl-2) determined by western blotting was selected for screening along with their vector controls (MDA-MB-231/Vector). Similarly MCF-7 cells clones were selected for characterization of lead molecules.
Cell viability was determined using CellTiter Glo Luminescent Cell Viability Assay (Promega, Madison, Wis.) as per manufacturer instructions. DAPI stain was used to assess apoptosis. Colony forming assays were performed as described previously.

[5] = system: normal mammary epithelial cells (MCF-10A and HMECs); assay: Viability of normal mammary epithelial cells; type: cell-based, human
Description: FIG. 9F depicts viability of methotrexate treated breast cancer cell line (ZR-75-1) in comparison to normal mammary epithelial cells (MCF-10A and HMECs).

[6] = system: WT MEF, Bax−/− MEF, Bak−/− MEF and Bax−/− Bak−/− MEF cells; assay: Viability of MEF cells with or without Bax or Bak; type: cell-based, mouse; details: 24 h, 10% serum; for Bax/Bak dependence of effect on MEF viability: 1 μM, WT, Bak−/− and DKO MEF; for viability at 1 µM: Mus musculus, MEF, normalized to vehicle
Description: WT MEF, BAX^−/− MEF, BAK^−/− MEF and Bax^−/− Bak^−/− MEF cells were treated with MTX at 1 μM concentration for 24 h in 10% serum conditions. Viability was assessed using the Glo assay. MTX treatments were normalized to 100% of Vehicle.
FIG. 17C WT MEF, Bax−/− MEF, Bak−/− MEF and Bax−/− Bak−/− MEF cells were treated with 1 μM BFC1108 for 24 h in 10% FBS medium and viability was assessed using cell titer glo assay.
WT MEF, Bax^−/− MEF, Bak^−/− MEF and Bax^−/− Bak^−/− MEF cells were treated with 1 μM BFC1103 for 24 h in 10% FBS medium and viability was assessed using cell titer glo assay.

[7] = 10 μM, 48 h, colony formation for 2 weeks

Bcl-2 loop domain, sequence (P10415 29-90 limits assumed): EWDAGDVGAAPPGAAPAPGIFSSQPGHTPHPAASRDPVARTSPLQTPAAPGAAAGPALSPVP

Structure (SMILES): CCCCc1ccc(NC(=O)CN(Cc2ccccc2)S(C)(=O)=O)cc1 [BFC1103, N-2-benzyl-N-1-(4-butylphenyl)-N-2-(methylsulfo-nyl) glycinamide]
Bcl-2 dependent effect on viability, Jurkat/Bcl-2 vs control ([1]; 10 μM, 24 h, 10% serum): reduced the viability of Jurkat human T cell leukemia cells with high Bcl-2 expression, compared to control cells
Proteolysis of Bcl-2 loop domain (Bcl-2 loop domain): delayed the proteolysis of the loop domain of Bcl-2
Clonogenic survival of MDA-MB-231 cells over-expressing Bcl-2 vs control cells [2, 7]: formed significantly fewer colonies, compared to control cells
Mitochondrial membrane potential (JC-1 dye) (H460 cells): decrease in their mitochondrial outer membrane potential
Bcl-2 selective reduction in viability, MDA-MB-231/Bcl-2 vs MDA-MB-231/Vector ([3]; 24 h): Bcl-2 dependent reduction in viability of MDA-MB-231 cells; also recorded: Bcl-2 selective induction of cell death
Viability of MDA-MB-231 with increased Bcl-2 vs control cells under hypoxic conditions ([3]; hypoxic conditions): significant reduction in viability of MDA-MB-231 with increased Bcl-2 expression compared to the control cells
Bcl-2 dependent effect on viability, MCF-7/Bcl-2 vs MCF-7/Vector ([4]; 10 μM, 24 h): reduced the viability of MCF-7 cells with high Bcl-2 levels, compared to Bcl-2 low expressing control cells
Viability of normal mammary epithelial cells MCF-10A ([5]; 24 h, 10% FBS): minimal effect on normal mammary epithelial cells (MCF-10A)
Bax/Bak dependence of effect on MEF viability [6]: wild type MEF cells, MEF cells without Bax or Bak expression had significant reduction in their viability compared to the double knockout (DKO) MEFs

Structure (SMILES): CCOc1ccccc1NC(=O)c1cc(Cl)ccc1NC(=O)c1ccc(OC)cc1 [BFC1108, 5-chloro-N-(2-ethoxyphenyl)-2-[(4-methoxybenzoyl)amino]-benzamide]
Bcl-2 dependent effect on viability, Jurkat/Bcl-2 vs Jurkat/Vector ([1]; 48 h, 10% FBS): reduction in viability was seen compared to their Bcl-2 low-expressing control cells
Proteolysis of Bcl-2 loop domain (Bcl-2 loop domain): increased proteolysis of Bcl-2 loop domain was noticeable by 4 min time point
Effect on colony forming ability of low Bcl-2 expressing 231/Vector control cells [2, 7]: not seen
Reduction in colony forming ability of MDA-MB-231/Bcl-2 cells compared to vehicle controls [2, 7]: 50%
Mitochondrial membrane potential (JC-1 dye) (H460 cells): decreased mitochondrial membrane potential
Bcl-2 selective reduction in viability, MDA-MB-231/Bcl-2 vs MDA-MB-231/Vector ([3]; 24 h): better Bcl-2 selective induction of cell death
Bcl-2 dependent reduction in viability, MDA-MB-231/Bcl-2 vs Vector ([3]; 48 h): dose dependent reduction in viability of Bcl-2-high expressing cells (MDA-MB-231/Bcl-2), compared to their vector controls
Bcl-2 dependent effect on viability, MCF-7/Bcl-2 vs MCF-7/Vector ([4]; 48 h): MCF-7 cells with high-Bcl-2 expression are more sensitive to BFC1108
Viability of normal mammary epithelial cells MCF-10A ([5]; 48 h, 10% serum): No effect on the viability of MCF-10A cells
Bax/Bak dependence of effect on MEF viability [6]: no effect on viability in DKO MEFs, whereas Bax^−/− MEF and Bak^−/− MEF have diminished viability

Proteolysis pattern of Bcl-2 loop domain (Bcl-2 loop domain; 1 μM methotrexate, trypsin): differential proteolysis pattern
Structure (SMILES): CN(Cc1cnc2nc(N)nc(N)c2n1)c1ccc(C(=O)N[C@@H](CCC(=O)O)C(=O)O)cc1 [MTX, (2S)-2-[[4-[(2,4 diaminopteridin-6-yl)methylmethylamino]benzoyl]amino] pentanedioc acid]
Bcl-2 dependent effects in Jurkat Lymphoma cells ([1]; Bcl-2 low and high expressing Jurkat lymphoma cells treated for 72 hours with various concentrations): Yes
minimal effective concentration ([1]; Homo sapiens, Jurkat lymphoma cells, 72 hours, n/d means no reduction was detected at concentrations tested, read-out: Lowest effective dose (minimal effective concentration that induced Bcl-2-dependent reduction in cell viability)): 0.01 µM
Viability of Jurkat/Bcl-2 vs Vector under hypoxic conditions ([1]; hypoxic conditions, 10% FBS, 24 h): significant reduction in viability of Jurkat/Bcl-2 cells compared to their Vector control
Bcl-2 dependent apoptosis with folate supplementation ([1]; supplemented with 1 μM of folic acid): Bcl-2 dependent apoptosis was still observed
Reduction in colonies formed by MDA-MB-231/Bcl-2 cells compared to vector controls ([2]; 10 μM MTX, 24 h): 60%
Mitochondrial membrane potential (JC-1 dye) (H460 cells): decrease in their mitochondrial membrane potential
Bcl-2 selective reduction in viability, MDA-MB-231/Bcl-2 vs MDA-MB-231/Vector ([3]; 24 h): selectively induce more cell death in high-Bcl-2 expressing MDA-MB-231 cells
Bcl-2 dependent reduction in viability, MDA-MB-231/Bcl-2 vs Vector ([3]; various concentrations, 24 h): reduced viability in MDA-MB-231/Bcl-2 cells significantly in comparison to the MDA-MB-231/Vector control cells
Bcl-2 dependent effect on viability, MCF-7/Bcl-2 vs MCF-7/Vector ([4]; 10 μM, 24 h): Bcl-2 dependent effect of MTX was consistent in estrogen receptor (ER) positive MCF-7 cells over-expressing Bcl-2
Viability of normal breast epithelial cells MCF-10A and HMEC ([5]; similar concentrations of MTX as in cancer cells): relatively unaffected
Bax/Bak dependence of effect on MEF viability [6]: viability of Bax^−/− Bak^−/− MEF (DKO) cells was not effected
viability at 1 µM ([6]; read-out: Viability, Bak−/− MEF): ~40%
viability at 1 µM ([6]; read-out: Viability, Bax−/− MEF): ~40%
viability at 1 µM ([6]; read-out: Viable cells, wild type MEF): ~30%

From patent publication US11419843B2, “Small molecule BCL-2 functional converters as cancer therapeutics” (Oregon State University, priority 2016, dated 2022)
